Measurements published in ChEMBL document CHEMBL3885881, “DrugMatrix”.

Species on record: Rattus norvegicus
Test: DrugMatrix - Regimen: Daily Repeat
Format: toxicity, organism-based, Sprague-Dawley
Parameters: regimen Daily Repeat, gender Male, age 6-8 weeks
Conditions: in vivo, sc, route subcutaneous, […]; for ABSOLUTE BASOPHIL / ABSOLUTE EOSINOPHIL / ABSOLUTE LYMPHOCYTE / ABSOLUTE MONOCYTE / ABSOLUTE SEGMENTED NEUTROPHIL / BASOPHIL / EOSINOPHIL / ERYTHROCYTE COUNT / HEMATOCRIT / HEMOGLOBIN / LEUKOCYTE COUNT / LYMPHOCYTE / MEAN CORPUSCULAR HEMOGLOBIN / MEAN CORPUSCULAR HEMOGLOBIN CONCENTRATION / MEAN CORPUSCULAR VOLUME / MONOCYTE / NEUTROPHIL / NUCLEATED RED BLOOD CELLS / PLATELET COUNT: tissue Blood; for ALANINE AMINOTRANSFERASE / ALBUMIN / ALKALINE PHOSPHATASE / ASPARTATE AMINOTRANSFERASE / BLOOD UREA NITROGEN / CARBON DIOXIDE / CHLORIDE / CHOLESTEROL / CREATINE PHOSPHOKINASE / CREATININE / GLUCOSE / LACTATE DEHYDROGENASE / LIPASE / PHOSPHORUS / POTASSIUM / SODIUM / TOTAL BILIRUBIN / TOTAL PROTEIN / URIC ACID: tissue Plasma
[1] = 68 mg/kg, 72 h, dose level High, time 3 day
[2] = 68 mg/kg, 120 h, dose level High, time 5 day
[3] = 72 h, dose 6.8 mg/Kg, dose level Low, time 3 day
[4] = 120 h, dose 6.8 mg/Kg, dose level Low, time 5 day

Structure (SMILES): Oc1cccc2cccnc12 [OXYQUINOLINE]
- ABSOLUTE BASOPHIL [1]: 0 CELLS/uL
- ABSOLUTE EOSINOPHIL [1]: 246.33 CELLS/uL
- ABSOLUTE LYMPHOCYTE [1]: 13064.33 CELLS/uL
- ABSOLUTE MONOCYTE [1]: 405.33 CELLS/uL
- ABSOLUTE SEGMENTED NEUTROPHIL [1]: 1850.67 CELLS/uL
- BASOPHIL [1]: 0%
- EOSINOPHIL [1]: 1.67%
- ERYTHROCYTE COUNT [1]: 5.38 x10E6/uL
- HEMATOCRIT [1]: 34.33%
- HEMOGLOBIN [1]: 12.8 G/DL
- LEUKOCYTE COUNT [1]: 15.57 x10E3/uL
- LYMPHOCYTE [1]: 83.67%
- MEAN CORPUSCULAR HEMOGLOBIN [1]: 23.83 pg
- MEAN CORPUSCULAR HEMOGLOBIN CONCENTRATION [1]: 37.33 G/DL
- MEAN CORPUSCULAR VOLUME [1]: 63.87 fL
- MONOCYTE [1]: 2.67%
- NEUTROPHIL [1]: 12%
- NUCLEATED RED BLOOD CELLS [1]: 0 /100WBC
- PLATELET COUNT [1]: 1290 x10E3/uL
- ALANINE AMINOTRANSFERASE [1]: 49.33 u/L
- ALBUMIN [1]: 3.73 G/DL
- ALKALINE PHOSPHATASE [1]: 444 u/L
- ASPARTATE AMINOTRANSFERASE [1]: 72 u/L
- BLOOD UREA NITROGEN [1]: 18.67 mg/dL
- CARBON DIOXIDE [1]: 26 mmol/L
- CHLORIDE [1]: 105 MEQ/L
- CHOLESTEROL [1]: 65.33 mg/dL
- CREATINE PHOSPHOKINASE [1]: 160.33 u/L
- CREATININE [1]: 0.13 mg/dL
- GLUCOSE [1]: 169 mg/dL
- LACTATE DEHYDROGENASE [1]: 87.67 u/L
- LIPASE [1]: 8.67 u/L
- PHOSPHORUS [1]: 12.4 mg/dL
- POTASSIUM [1]: 6.22 MEQ/L
- SODIUM [1]: 146.43 MEQ/L
- TOTAL BILIRUBIN [1]: 0.2 mg/dL
- TOTAL PROTEIN [1]: 5.63 G/DL
- URIC ACID [1]: 1.07 mg/dL
- ABSOLUTE BASOPHIL [2]: 0 CELLS/uL
- ABSOLUTE EOSINOPHIL [2]: 367.33 CELLS/uL
- ABSOLUTE LYMPHOCYTE [2]: 11402.67 CELLS/uL
- ABSOLUTE MONOCYTE [2]: 397.67 CELLS/uL
- ABSOLUTE SEGMENTED NEUTROPHIL [2]: 1465.67 CELLS/uL
- BASOPHIL [2]: 0%
- EOSINOPHIL [2]: 2.67%
- ERYTHROCYTE COUNT [2]: 5.88 x10E6/uL
- HEMATOCRIT [2]: 36.73%
- HEMOGLOBIN [2]: 13.63 G/DL
- LEUKOCYTE COUNT [2]: 13.63 x10E3/uL
- LYMPHOCYTE [2]: 83.33%
- MEAN CORPUSCULAR HEMOGLOBIN [2]: 23.2 pg
- MEAN CORPUSCULAR HEMOGLOBIN CONCENTRATION [2]: 37.13 G/DL
- MEAN CORPUSCULAR VOLUME [2]: 62.53 fL
- MONOCYTE [2]: 3%
- NEUTROPHIL [2]: 11%
- NUCLEATED RED BLOOD CELLS [2]: 0 /100WBC
- PLATELET COUNT [2]: 1567 x10E3/uL
- ALANINE AMINOTRANSFERASE [2]: 37.67 u/L
- ALBUMIN [2]: 3.87 G/DL
- ALKALINE PHOSPHATASE [2]: 326.67 u/L
- ASPARTATE AMINOTRANSFERASE [2]: 67 u/L
- BLOOD UREA NITROGEN [2]: 16.67 mg/dL
- CARBON DIOXIDE [2]: 25.33 mmol/L
- CHLORIDE [2]: 105 MEQ/L
- CHOLESTEROL [2]: 75.33 mg/dL
- CREATINE PHOSPHOKINASE [2]: 175 u/L
- CREATININE [2]: 0.16 mg/dL
- GLUCOSE [2]: 162 mg/dL
- LACTATE DEHYDROGENASE [2]: 86.67 u/L
- LIPASE [2]: 8 u/L
- PHOSPHORUS [2]: 13.33 mg/dL
- POTASSIUM [2]: 6.17 MEQ/L
- SODIUM [2]: 147.4 MEQ/L
- TOTAL BILIRUBIN [2]: 0.17 mg/dL
- TOTAL PROTEIN [2]: 6.03 G/DL
- URIC ACID [2]: 2.03 mg/dL
- ABSOLUTE BASOPHIL [3]: 0 CELLS/uL
- ABSOLUTE EOSINOPHIL [3]: 0 CELLS/uL
- ABSOLUTE LYMPHOCYTE [3]: 14772 CELLS/uL
- ABSOLUTE MONOCYTE [3]: 208 CELLS/uL
- ABSOLUTE SEGMENTED NEUTROPHIL [3]: 1086.67 CELLS/uL
- BASOPHIL [3]: 0%
- EOSINOPHIL [3]: 0%
- ERYTHROCYTE COUNT [3]: 5.93 x10E6/uL
- HEMATOCRIT [3]: 37.03%
- HEMOGLOBIN [3]: 13.73 G/DL
- LEUKOCYTE COUNT [3]: 16.07 x10E3/uL
- LYMPHOCYTE [3]: 91.33%
- MEAN CORPUSCULAR HEMOGLOBIN [3]: 23.23 pg
- MEAN CORPUSCULAR HEMOGLOBIN CONCENTRATION [3]: 37.07 G/DL
- MEAN CORPUSCULAR VOLUME [3]: 62.63 fL
- MONOCYTE [3]: 1.33%
- NEUTROPHIL [3]: 7.33%
- NUCLEATED RED BLOOD CELLS [3]: 0.33 /100WBC
- PLATELET COUNT [3]: 1308.67 x10E3/uL
- ALANINE AMINOTRANSFERASE [3]: 45.67 u/L
- ALBUMIN [3]: 4.3 G/DL
- ALKALINE PHOSPHATASE [3]: 363.67 u/L
- ASPARTATE AMINOTRANSFERASE [3]: 73.33 u/L
- BLOOD UREA NITROGEN [3]: 15 mg/dL
- CARBON DIOXIDE [3]: 24.33 mmol/L
- CHLORIDE [3]: 103 MEQ/L
- CHOLESTEROL [3]: 68.67 mg/dL
- CREATINE PHOSPHOKINASE [3]: 130.33 u/L
- CREATININE [3]: 0.2 mg/dL
- GLUCOSE [3]: 142.67 mg/dL
- LACTATE DEHYDROGENASE [3]: 83.33 u/L
- LIPASE [3]: 8.67 u/L
- PHOSPHORUS [3]: 11.27 mg/dL
- POTASSIUM [3]: 6.77 MEQ/L
- SODIUM [3]: 146.07 MEQ/L
- TOTAL BILIRUBIN [3]: 0.2 mg/dL
- TOTAL PROTEIN [3]: 5.57 G/DL
- URIC ACID [3]: 1.63 mg/dL
- ABSOLUTE BASOPHIL [4]: 0 CELLS/uL
- ABSOLUTE EOSINOPHIL [4]: 182.67 CELLS/uL
- ABSOLUTE LYMPHOCYTE [4]: 12749.33 CELLS/uL
- ABSOLUTE MONOCYTE [4]: 601.33 CELLS/uL
- ABSOLUTE SEGMENTED NEUTROPHIL [4]: 1500 CELLS/uL
- BASOPHIL [4]: 0%
- EOSINOPHIL [4]: 1.33%
- ERYTHROCYTE COUNT [4]: 6.16 x10E6/uL
- HEMATOCRIT [4]: 37.9%
- HEMOGLOBIN [4]: 13.87 G/DL
- LEUKOCYTE COUNT [4]: 15.03 x10E3/uL
- LYMPHOCYTE [4]: 84.67%
- MEAN CORPUSCULAR HEMOGLOBIN [4]: 22.53 pg
- MEAN CORPUSCULAR HEMOGLOBIN CONCENTRATION [4]: 36.6 G/DL
- MEAN CORPUSCULAR VOLUME [4]: 61.5 fL
- MONOCYTE [4]: 4%
- NEUTROPHIL [4]: 10%
- NUCLEATED RED BLOOD CELLS [4]: 0 /100WBC
- PLATELET COUNT [4]: 1278.67 x10E3/uL
- ALANINE AMINOTRANSFERASE [4]: 45 u/L
- ALBUMIN [4]: 4.2 G/DL
- ALKALINE PHOSPHATASE [4]: 341 u/L
- ASPARTATE AMINOTRANSFERASE [4]: 77 u/L
- BLOOD UREA NITROGEN [4]: 19 mg/dL
- CARBON DIOXIDE [4]: 24.33 mmol/L
- CHLORIDE [4]: 107 MEQ/L
- CHOLESTEROL [4]: 75.33 mg/dL
- CREATINE PHOSPHOKINASE [4]: 227.33 u/L
- CREATININE [4]: 0.17 mg/dL
- GLUCOSE [4]: 154.33 mg/dL
- LACTATE DEHYDROGENASE [4]: 324 u/L
- LIPASE [4]: 9 u/L
- PHOSPHORUS [4]: 12.23 mg/dL
- POTASSIUM [4]: 6.39 MEQ/L
- SODIUM [4]: 146.97 MEQ/L
- TOTAL BILIRUBIN [4]: 0.13 mg/dL
- TOTAL PROTEIN [4]: 6.37 G/DL
- URIC ACID [4]: 1.5 mg/dL
